Assay results taken from US20210187013A1, “Methods of Treating and Preventing Cancer by Disrupting the Binding of Copper in the Map Kinase Pathway” (DUKE UNIVERSITY, priority 2012, published 2021).
One block for each compound: values may come before it.

What was measured:
[1] = tested on: Erk1/2 phosphorylation in Drosophila S2 cells; assay: Insulin-stimulated Erk1/2 phosphorylation in S2 cells after preincubation with chelator or silver (immunoblot); assay type: cell-based; details: then human insulin 25 μg/mL
Excerpt: The copper transporter Ctr1 was identified as one of approximately 300 genes that when knocked down in S2 insect cells reduced phosphorylation of Erk (see, e.g., Friedman, A. and Perrimon, N. (2006) Nature 444:230-234). To explore whether both Ctr11 and the associated Cu^+ transport function are important for Ras signaling to Erk1/2, Cu^+-specific chelation was used to impose copper deficiency on cultured fly S2 cells, S2 cells used for the no-treatment and insulin-only treatment conditions were left in basal medium (Schneider's medium with 10% fetal bovine serum) during the preincubation. S2 cells used for the other treatment conditions were preincubated for 1 hour with chelator or silver as follows: 10 μM tetrathiomolybdate (TTM) and 250 μM bathocupronine disulfonate (BCS) for copper chelation experiments, 10 μM ferrozine, and 250 μM bathophenanthroline disulfonate (BPS) for iron chelation, and 10 μM silver nitrate. Cells were stimulated with human insulin at a concentration of 25 μg/mL of medium. […] (FIG. 3A). […] (FIG. 3B). […] (FIG. 3C).

[2] = tested on: Erk1/2 phosphorylation in mouse embryonic fibroblasts (MEFs); assay: Insulin-stimulated Erk1/2 phosphorylation in Ctr1+/+ and Ctr1−/− MEFs; assay type: cell-based
Protocol: Ctr1^+/+ and Ctr1^−/− mouse embryonic fibroblasts (MEFs) and insulin or fibroblast growth factor (FGF) stimulation experiments. To determine whether copper plays a role in the activation of Erk1/2, which is phosphorylated by Mek1, Ctr1^+/+ and Ctr1^−/− mouse embryonic fibroblasts (MEFs) were evaluated for insulin-stimulated ERK1/2 phosphorylation. Isolation and culture of Ctr1^+/+ and Ctr1^−/− cells were done as described in Lee, J. et al. (2002) J. Biol. Chem. 30:322-329. Insulin or fibroblast growth factor (FGF) stimulation experiments were done with plates measuring […], with one plate per time point. Cells were allowed to reach ˜95% confluence and then serum starved for 16 to 48 hours. Recombinant human insulin (Invitrogen, Carlsbad, United States) was added at a final concentration of 200 nM, and recombinant human basic FGF (Invitrogen, Carlsbad, United States) was added at a final concentration of 10 ng/ml, with the exception of the time zero plate. […]

recombinant Mek1 = biological target: T1, recombinant Mek1 (Rattus norvegicus, UniProt Q01986); assay: Equilibrium dialysis copper binding stoichiometry of recombinant Mek1
T1 construct: GST (N, cleaved yes); made in house; host or cells: E. coli BL21-CodonPlus (DE3)-RIPL
T1 sequence (Q01986 whole entry): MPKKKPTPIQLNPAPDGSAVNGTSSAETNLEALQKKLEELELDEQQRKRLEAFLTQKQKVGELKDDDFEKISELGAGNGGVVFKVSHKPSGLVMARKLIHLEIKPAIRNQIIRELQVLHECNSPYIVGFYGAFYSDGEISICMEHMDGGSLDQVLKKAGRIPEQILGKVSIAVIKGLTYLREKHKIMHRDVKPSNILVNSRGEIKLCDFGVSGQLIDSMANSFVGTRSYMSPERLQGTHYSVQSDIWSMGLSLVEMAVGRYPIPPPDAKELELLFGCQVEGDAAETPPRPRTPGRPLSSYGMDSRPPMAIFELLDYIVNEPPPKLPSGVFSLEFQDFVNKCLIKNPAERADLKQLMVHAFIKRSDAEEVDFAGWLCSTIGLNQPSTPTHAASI
Protocol: To investigate the nature of copper binding to Mek1, purified recombinant Mek1 was used for in vitro copper binding stoichiometry and binding affinity experiments. In vitro copper-binding experiments were carried out using the rat Mek1 coding sequence, which was PCR amplified using the pCMV-HAMek1 construct and cloned into the pGex6P-1 vector (GE Healthcare Life Sciences, Waukesha, United States). The resulting plasmid, pGex69-1Mek1, was transformed into BL21-CodonPlus (DE3)-RIPL cells from Stratagene. Recombinant, glutathione S-transferase (GST)-tagged Mek1 was purified by affinity chromatography using GSH agarose beads, followed by on-column Pre Scission protease cleavage of the GST tag. Further purification was achieved using MonoQ anion-exchange chromatography that served to remove the majority of the contaminating proteins, including cleaved GST tags that were not retained on the GSH column. […] Protein concentrations were determined by quantitative amino acid analysis with a Beckman 6300 analyzer (Beckman Coulter, Brea, United States) after hydrolysis in 5.7 N HCl at 110° C. in vacuo. Equilibrium dialysis experiments were conducted as described in Horng, Y. C. et al. (2006) J. Biol. Chem. 280:34113-34122. Recombinant Mek1 (2.5 to 10 μM in 20 mM Tris [pH 7.2]) was dialyzed, using a dialysis tube with 10-kDa molecular mass cutoff, against CuCl2 concentrations ranging from 0.25 to 15 μM in 20 mM Tris (pH 7.2)-100 mM NaCl overnight at 4° C. with slow stirring. Copper levels associated with Mek1 and the dialysate were quantified by inductively coupled plasma mass spectroscopy after digestion with 50% HNO3 at 65° C. In specific experiments, Cu^2+ was introduced as a Cu^2+-histidine complex (His complex) to preclude Cu^2+ hydrolysis and precipitation.
However, the inclusion of 0.1 mM EDTA reduced the Cu content to ˜1.5 molar equivalents. Dialysis of Mek1 against 2 μM Cu^2+-4 μM His complex, followed by a subsequent dialysis step in 0.1 mM EDTA, reduced the copper content to approximately 2 molar equivalents. Inclusion of […] when only Cu^2+ was present. […] In a separate series of equilibrium dialysis experiments in which the Cu^2+ content was varied from […] to 0.15 μM, the maximal copper content associated with Mek1 plateaued near ˜2.5 molar equivalent (FIG. 7B). […] Under these same conditions, Cu^2+ binding is observed with albumin, a known Cu^2+-binding protein, but not lysozyme or thyroglobulin.

recombinant GST-hErk2 = biological target: T2, recombinant GST-hErk2 (Homo sapiens, UniProt P28482); assay: Erk2 in vitro kinase assay (phosphorylation of MBP); assay type: biochemical; details: increasing amounts of CuSO4; wild-type Erk2
T2 construct: made in house; host or cells: E. coli BL21(DE3)
T2 sequence (P28482 whole entry): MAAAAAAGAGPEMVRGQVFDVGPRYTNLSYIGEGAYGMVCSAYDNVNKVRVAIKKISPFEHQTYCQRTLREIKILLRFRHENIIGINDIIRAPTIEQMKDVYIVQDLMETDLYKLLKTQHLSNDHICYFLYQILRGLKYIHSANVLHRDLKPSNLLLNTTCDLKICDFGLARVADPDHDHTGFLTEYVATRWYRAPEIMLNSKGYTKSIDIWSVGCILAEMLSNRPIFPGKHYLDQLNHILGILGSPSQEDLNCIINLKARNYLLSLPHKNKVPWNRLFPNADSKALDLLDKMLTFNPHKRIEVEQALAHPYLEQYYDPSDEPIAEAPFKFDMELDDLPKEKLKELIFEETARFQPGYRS
Protocol: Human Erk2 and human Mek1 were obtained from Addgene and cloned into pGEX4T3 and pGEX6P1 from GE Life Sciences, respectively. Recombinant GST-human Erk2 (hErk2) and GST-human Mek1 (hMek1) were purified from BL21(DE3) bacteria as previously described. (see Heise, C. J. (2006) Methods 40:209-212; Levin-Salomon, V. et al. (2008) J. Biol. Chem. 283:34500-34510). Specifically, 500 mL of LB was inoculated with BL21(DE3) bacteria transformed with pGEX4T3-hErk2 or pGEX6P1-hMek1 and allowed to grow to an optical density of 0.6 at 600 nm (OD600). GST-hErk2 was induced by IPTG (0.4 mM) at 37° C. for 4 hours, while GST-hMek1 was induced by IPTG (1 mM) for 14 hour at 25° C. before collection by ultracentrifugation. […] and GST-hMek1 pellets were resuspended in 50 mL of 1×PBS-1% Triton X-100 plus a protease inhibitor tablet and sonicated for bacterial lysis. […] The concentration was determined using the Bio-Rad DC protein assay (Bio-Rad, Hercules, United States).
(§1) Modified version of Mek1 and Erk2 in vitro kinase assay were performed as described previously. […] Reactions were quenched with 5× Laemmli buffer, and a third of the reaction mixture was analyzed by SDS-PAGE via subsequent Western blotting with phosphospecific antibodies. […] Reactions were quenched with 5× Laemmli buffer, and a third of the reaction mixture was analyzed by SDS-PAGE via Western blotting with phosphospecific antibodies.

[3] = tested on: BRaf^V600E-transformed MEFs; assay: Tumor growth in mice injected with BRaf^V600E-transformed MEFs; assay type: in vivo; details: 2 mg/day oral TM
Excerpt: FIGS. 12A-12C are graphs showing that copper is required for BRaf^V600E-driven tumorigenesis.
Copper is provided primarily through diet. […] Similar copper-reducing strategies may even hold promise as a way to preemptively reduce the incidence of melanoma in high-risk populations. In this regards, there are well-established approaches to regulate the level of copper in humans. Specifically, Wilson's Disease is characterized by a mutation in the copper-transporting gene ATP7B that results in elevated levels of copper in the body (see, e.g., Das, S. K. and Ray, K. (2006) Nat. Clin. Pract. Neurol. 2:482-493). This disease is treated by first lowering copper levels with copper chelators D-penicillamine, trientine or investigative drugs such as ammonium tetrathiomolybdate (TM). Copper levels are then maintained by a copper-restricted diet (e.g., avoidance of copper-rich foods such as shellfish, nuts, chocolate, liver and cooking in copperware) and either zinc acetate, to block copper absorption, or low dose copper chelators (see, e.g., Das, S. K. and Ray, K. (2006), supra). To evaluate if reducing dietary copper could negatively impact melanoma, mice injected with BRaf^V600E-transformed MEFs were either untreated as a control or treated with oral TM to chelate dietary copper.

[4] = biological target: T3, recombinant GST-tagged human Mek1 (Homo sapiens, UniProt Q02750); assay: Mek1 in vitro kinase assay (phosphorylation of kinase-dead Erk2); assay type: biochemical
T3 construct: made in house; host or cells: E. coli BL21(DE3)
T3 sequence (Q02750 whole entry): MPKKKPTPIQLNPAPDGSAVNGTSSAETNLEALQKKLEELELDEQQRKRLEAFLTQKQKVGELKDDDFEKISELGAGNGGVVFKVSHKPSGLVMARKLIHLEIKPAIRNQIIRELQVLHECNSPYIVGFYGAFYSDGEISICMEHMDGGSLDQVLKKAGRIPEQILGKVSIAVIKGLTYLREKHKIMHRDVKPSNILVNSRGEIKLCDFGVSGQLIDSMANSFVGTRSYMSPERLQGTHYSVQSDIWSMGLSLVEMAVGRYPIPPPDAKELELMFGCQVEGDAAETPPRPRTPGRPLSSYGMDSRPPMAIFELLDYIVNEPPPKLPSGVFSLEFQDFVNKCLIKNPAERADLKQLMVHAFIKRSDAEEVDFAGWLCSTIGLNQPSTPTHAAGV
Protocol: Mek1 requires copper for kinase activity in vitro (FIG. 8 and Turski, M. L. et al. (2012), supra). To determine the role copper plays in the stimulation of Mek1-dependent phosphorylation of Erk1/2, a series of in vitro experiments were carried out. For these experiments, purified human Mek1 protein was incubated with a kinase-dead isoform of hErk2 so that assessment of Erk2 phosphorylation mediated by Mek1 could be made in the absence of Erk2 autophosphorylation. Seger, R. et. al. (1991) Proc. Natl. Acad. Sci. U.S.A. 88:6142-6146.
Human Erk2 and human Mek1 were obtained from Addgene and cloned into pGEX4T3 and pGEX6P1 from GE Life Sciences, respectively. Recombinant GST-human Erk2 (hErk2) and GST-human Mek1 (hMek1) were purified from BL21(DE3) bacteria as previously described. […] The concentration was determined using the Bio-Rad DC protein assay (Bio-Rad, Hercules, United States).
as §1

[5] = Cu2+ affinity of ligands used in the PAR competition study; assay type: physicochemical; details: 1:1 complex
Protocol: To obtain a precise binding affinity, a series of ligand competition studies using PAR were conducted. PAR is a chromogenic chelator forming colored complexes with metal ions. Cu^2+ binding affinity for Mek1 was estimated using competition experiments similar to those described in Zimmermann, M. et. al. (2009) Biochemistry 48:11640-11654, with the divalent metal ligand PAR [4-(2-pyridylazo)resorcinol]. The quantitative release of the 1:1 Cu^2+-/PAR complex on titration of apo-Mek1 was monitored spectrophotometrically at 500 nm (DU 600 spectrophotometer, Beckman Coulter, Brea, United States) in 20 mM Tris (pH 7.2)-100 mM NaCl.
Bidentate PAR forms a 1:1 complex with Cu^2+.
Control titrations under the same pH and ionic strength buffer conditions were performed with EDTA and bovine serum albumin (BSA) to validate the Cu^2+-PAR titration study. Both EDTA and BSA are spectrally silent, with known dissociation constants. EDTA also served to calibrate Cu^2+-PAR affinity relative to the reaction condition used for the experiments.

[6] = S2 cells preincubated 1 hour with 10 μM agent
[7] = S2 cells preincubated 1 hour with 250 μM agent

Compound: O=[N+]([O-])[O-].[Ag+] [Ag, silver nitrate]
insulin-stimulated Erk1/2 phosphorylation [1, 6]: clearly diminished the levels of insulin-stimulated Erk1/2 phosphorylation

Compound: [Cu] [copper]
insulin-stimulated Erk1/2 phosphorylation ([2]; Ctr1+/+ cells, copper added): No additional stimulation was observed | insulin-stimulated Erk1/2 phosphorylation ([2]; Ctr1−/− MEFs preincubated with 25 μM copper for 1 hour prior to insulin stimulation): increased insulin-stimulated Erk1/2 phosphorylation, though not to the same levels as Ctr1^+/+ MEFs

bound copper content of Mek1 (recombinant Mek1; dialysis against 2 μM Cu2+-4 μM His complex, then dialysis in 0.1 mM EDTA): approximately 2 molar equivalents | bound copper content of Mek1 (recombinant Mek1; dialysis against 2 μM Cu2+, as-isolated ratio ~0.5): ~2.5 molar equivalents | bound copper content of Mek1 (recombinant Mek1; dialysis with inclusion of 0.1 mM EDTA): ~1.5 molar equivalents | bound copper content of Mek1 (recombinant Mek1; only Cu2+ present (comparison with Zn(II) and Fe(II) inclusion)): 2.6 | maximal copper content associated with Mek1 (plateau) (recombinant Mek1; separate dialysis series, Cu2+ content varied from 0.11 to 0.15 μM): ~2.5 molar equivalent | Erk2 phosphorylation of MBP (recombinant GST-hErk2): no effect
Compound: [Cl][Cu][Cl] [Cu^2+, CuCl2]

Compound: [NH4+].[NH4+].[SH-].[SH-].[S]=[Mo]=[S] [TM, ammonium tetrathiomolybdate]
tumor size versus control tumors at termination of the experiment [3]: nearly five times smaller than the control tumors

Compound: [SH-].[SH-].[S]=[Mo]=[S] [TTM, tetrathiomolybdate, reference compound]
insulin-stimulated Erk1/2 phosphorylation [1, 6]: reduced the levels of insulin-stimulated Erk1/2 phosphorylation | Mek1 kinase activity in the presence of 2.5 μM CuSO4 ([4]; 50 μM TTM in the presence of CuSO4): blunted

Mek1 kinase activity, times greater ([4]; 2.5 μM CuSO4, 22° C., 30 minutes): ~20 times
Compound: O=S(=O)([O-])[O-].[Cu+2] [CuSO4]

Compound: bathophenanthroline disulfonate [BPS]
insulin-stimulated Erk1/2 phosphorylation [1, 7]: did not reduce insulin-stimulated Erk1/2 phosphorylation

Compound: O=S(=O)([O-])c1ccc(-c2nnc(-c3ccccn3)nc2-c2ccc(S(=O)(=O)[O-])cc2)cc1.[Na+].[Na+] [ferrozine]
insulin-stimulated Erk1/2 phosphorylation [1, 6]: did not reduce insulin-stimulated Erk1/2 phosphorylation

affinity of Cu2+-PAR complex (formation constant β) [5]: 3.2×10^17
Compound: Oc1ccc(N=Nc2ccccn2)c(O)c1 [PAR, 4-(2-pyridylazo)resorcinol]

Compound: Cc1cc(-c2ccc(S(=O)(=O)O)cc2)c2ccc3c(-c4ccc(S(=O)(=O)O)cc4)cc(C)nc3c2n1 [BCS, bathocupronine disulfonate]
insulin-stimulated Erk1/2 phosphorylation [1, 7]: reduced the levels of insulin-stimulated Erk1/2 phosphorylation
